Data on 13 compounds can be found in PMC3653948, “PDZ Domain-Mediated Interactions of G Protein-Coupled Receptors with Postsynaptic Density Protein 95: Quantitative Characterization of Interactions” (PLoS ONE, 2013).

Like-named read-outs stand apart in the source and are kept apart here. Peptide text beside a SMILES is read from it. Bounds are passed on as bounds.

One assay has as its target T1, PSD-95 PDZ3 (Homo sapiens, UniProt P78352).
T1 construct: made in house; host or cells: E. coli One Shot BL21 Star (DE3)
Put plainly: FP competition assay, PSD-95 PDZ3 (probe Cy5-CRIPT). Type of assay: binding. On the procedure: (§1) We used a competition set-up, where a constant concentration of isolated PSD-95 PDZ domain and a labeled reference ligand was titrated with unlabeled peptides from the GPCR C-tail library, typically within a 1–512 µM concentration range, and the resulting curves were fitted to obtain the IC50, which was used to calculate the K i (Figure 1). Three Cy5-labeled peptides with well-documented interactions with PSD-95 were used as reference ligands for the competition assay: Cy5-KIF1Bα was used for PDZ1 [20], Cy5-GluN2B (formerly known as NR2B) was used for PDZ2 and PDZ1-2 [21], and Cy5-CRIPT was used for PDZ3 [22] (Table S1). Competition with unlabeled versions of the reference ligands was used to validate the FP assay by comparison with the literature (Table S2).
(§2) FP measurements were performed in black, flat bottom 384-well NBS microplates (Corning) on a Synergy H4 microplatereader (BioTek Instruments) equipped with a 620/40 nm excitation filter, a 680/30 nm emission filter, and a 660 nm dichroic mirror. Polarization values were corrected with blank samples and samples with fluorescent probe alone. At least 10 data points were measured for each curve, and each data point was measured in triplicate. 25 nM Cy5-labeled probe was used for each assay: Cy5-KIF1Bα for PDZ1, Cy5-GluN2B for PDZ2 and PDZ1-2, and Cy5-CRIPT for PDZ3. All FP measurements were performed in a buffer containing 10 mM HEPES pH 7.4, 150 mM NaCl, and 1% BSA and incubated at least 15 min at room temperature before reading. The signal was stable for more than an hour, showing that the reaction was at equilibrium.
Saturation binding curves were used to determine the functionality of the PDZ domains by comparison with literature values and to calculate K i values from competition curves. Saturation binding curves were performed by mixing probe with a twofold dilution series of PDZ protein in a total volume of 30 µl. The K d was determined by fitting to a 1∶1 binding model: Y = Ymax × X/(X+K d).
(§3) For the competition binding curves, probe was mixed with a constant concentration of PDZ protein corresponding to the K d and a twofold dilution series of unlabeled peptide in a total volume of 30 µl. The baseline was determined using a sample containing only probe. The IC50 was determined by fitting to a 1∶1 binding model: Y = Ymax − Ymax × X/(X+IC50). The K i was calculated from the IC50 and from the K d for the interaction between the PDZ protein and the probe as described previously.

Another assay addresses T2, PSD-95 PDZ1 (Homo sapiens, UniProt P78352).
T2 construct: PSD-95 PDZ1 (aa 61–151); made in house; host or cells: E. coli One Shot BL21 Star (DE3)
The experiment in a line: FP competition assay, PSD-95 PDZ1 (probe Cy5-KIF1Bα). Type of assay: binding.

The target of a further assay is T3, PSD-95 PDZ2 (Homo sapiens, UniProt P78352).
T3 construct: PDZ2 (aa 155–249); made in house; host or cells: E. coli One Shot BL21 Star (DE3)
The experiment in a line: FP competition assay, PSD-95 PDZ2 (probe Cy5-GluN2B). The conditions noted are these: read-out: K i PDZ2. Type of assay: binding.

The test system of another assay is PSD-95. Put plainly: FP competition assay, PSD-95 PDZ domains overall (strongest binding domain / non-binders). The conditions noted are these: FP competition with the isolated PDZ domains, peptide typically 1–512 µM. Here is the method:
as §1, §2, §3

[1] abbreviates: 25 nM Cy5-KIF1Bα, 10 mM HEPES pH 7.4, 150 mM NaCl, 1% BSA, room temperature, at least 15 min, Ki ± fitting error, read-out: K i PDZ1.
[2] abbreviates: receptors binding to PDZ1 but not to PDZ2, read-out: K i PDZ1.

Experimental for PSD-95 PDZ1: (§4) FP measurements were performed in black, flat bottom 384-well NBS microplates (Corning) on a Synergy H4 microplatereader (BioTek Instruments) equipped with a 620/40 nm excitation filter, a 680/30 nm emission filter, and a 660 nm dichroic mirror. Polarization values were corrected with blank samples and samples with fluorescent probe alone. At least 10 data points were measured for each curve, and each data point was measured in triplicate. […] All FP measurements were performed in a buffer containing 10 mM HEPES pH 7.4, 150 mM NaCl, and 1% BSA and incubated at least 15 min at room temperature before reading. The signal was stable for more than an hour, showing that the reaction was at equilibrium.
(§5) For the competition binding curves, probe was mixed with a constant concentration of PDZ protein corresponding to the K d and a twofold dilution series of unlabeled peptide in a total volume of 30 µl. The baseline was determined using a sample containing only probe. The IC50 was determined by fitting to a 1∶1 binding model: Y = Ymax − Ymax × X/(X+IC50). The K i was calculated from the IC50 and from the K d for the interaction between the PDZ protein and the probe as described previously [38].
Experimental for PSD-95 PDZ2: as §4, §5

In the case of `CC[C@H](C)[C@H](NC(=O)[C@H](CCCNC(=N)N)NC(=O)[C@H](CCSC)NC(=O)[C@@H](NC(=O)[C@H](CO)NC(=O)[C@H](CO)NC(=O)[C@H](CCCCN)NC(=O)[C@H](CCCNC(=N)N)NC(=O)[C@H](CC(=O)O)NC(=O)[C@@H](N)CC(=O)O)[C@@H](C)O)C(=O)N[C@@H](CO)C(=O)N[C@@H](Cc1ccc(O)cc1)C(=O)N[C@@H](CC(C)C)C(=O)O` [SSTR3] (H-DDRKSSTMRISYL-OH), the Ki is 280 ± 5 µM on PSD-95 PDZ3 (read-out: K i PDZ3), 610 ± 125 µM at PSD-95 PDZ1 (setting [1]), above 600 µM on PSD-95 PDZ1 (setting [2]) and above 1000 µM at PSD-95 PDZ2.
As for `CC[C@H](C)[C@H](NC(=O)[C@H](CO)NC(=O)[C@@H](NC(=O)[C@H](CCC(N)=O)NC(=O)[C@H](CC(C)C)NC(=O)[C@H](CC(=O)O)NC(=O)CNC(=O)[C@H](CC(N)=O)NC(=O)[C@H](CC(C)C)NC(=O)[C@H](CC(C)C)NC(=O)[C@H](CCCNC(=N)N)NC(=O)[C@H](CC(=O)O)NC(=O)[C@H](CC(=O)O)NC(=O)[C@@H](N)Cc1ccc(O)cc1)[C@@H](C)O)C(=O)O` [SSTR2A] (H-YDDRLLNGDLQTSI-OH), the Ki was above 1000 µM at PSD-95 PDZ3 (read-out: K i PDZ3), 620 ± 106 µM at PSD-95 PDZ1 (setting [1]) and 230 ± 2 µM on PSD-95 PDZ2.
For the compound `CC(C)C[C@H](NC(=O)[C@H](CC(C)C)NC(=O)[C@H](CO)NC(=O)[C@H](CC(=O)O)NC(=O)[C@H](CC(N)=O)NC(=O)[C@@H](NC(=O)[C@H](CO)NC(=O)[C@H](CS)NC(=O)[C@H](CC(N)=O)NC(=O)[C@H](CCCNC(=N)N)NC(=O)[C@H](CCCNC(=N)N)NC(=O)[C@H](CC(=O)O)NC(=O)[C@H](CC(=O)O)NC(=O)[C@@H](N)Cc1ccc(O)cc1)[C@@H](C)O)C(=O)O` [β2AR] (H-YDDRRNCSTNDSLL-OH), the Ki on PSD-95 PDZ3 (read-out: K i PDZ3) and on PSD-95 PDZ1 (setting [1]) was above 1000 µM each time.
On to `CC(C)[C@H](NC(=O)[C@H](CC(N)=O)NC(=O)[C@@H](NC(=O)[C@H](C)NC(=O)[C@H](CCC(=O)O)NC(=O)[C@@H](NC(=O)[C@H](Cc1ccccc1)NC(=O)[C@H](CO)NC(=O)[C@H](CC(=O)O)NC(=O)[C@H](CC(N)=O)NC(=O)[C@H](CCCNC(=N)N)NC(=O)[C@H](CC(=O)O)NC(=O)[C@H](CC(=O)O)NC(=O)[C@@H](N)Cc1ccc(O)cc1)[C@@H](C)O)[C@@H](C)O)C(=O)O` [Y2] (H-YDDRNDSFTEATNV-OH), for which the values for the Ki at PSD-95 PDZ3 (read-out: K i PDZ3), on PSD-95 PDZ1 (setting [1]) and at PSD-95 PDZ2 were above 1000 µM, 270 ± 22 µM and 230 ± 14 µM, respectively.
Consider `CC[C@H](C)[C@H](NC(=O)[C@H](CCCNC(=N)N)NC(=O)[C@H](CCCNC(=N)N)NC(=O)[C@H](CC(=O)O)NC(=O)[C@H](CC(=O)O)NC(=O)[C@@H](N)Cc1ccc(O)cc1)C(=O)N1CCC[C@H]1C(=O)N[C@@H](CC(C)C)C(=O)N[C@H](C(=O)N[C@@H](CCCNC(=N)N)C(=O)N[C@H](C(=O)N[C@H](C(=O)N[C@H](C(=O)N[C@@H](Cc1ccccc1)C(=O)O)[C@@H](C)O)[C@@H](C)O)[C@@H](C)O)[C@@H](C)O` [SSTR4 Human] (H-YDDRRIPLTRTTTF-OH), for which the Ki on PSD-95 PDZ3 (read-out: K i PDZ3) turned out to be 600 ± 67 µM; on PSD-95 PDZ1 (setting [1]) it was 750 ± 80 µM; at PSD-95 PDZ2 it was 450 ± 58 µM.
With `CC(C)C[C@H](NC(=O)[C@@H](NC(=O)[C@@H](NC(=O)[C@H](CO)NC(=O)[C@@H](NC(=O)[C@H](Cc1c[nH]cn1)NC(=O)CNC(=O)[C@H](CO)NC(=O)[C@H](CO)NC(=O)[C@H](CO)NC(=O)[C@H](CCCNC(=N)N)NC(=O)[C@H](CC(=O)O)NC(=O)[C@H](CC(=O)O)NC(=O)[C@@H](N)Cc1ccc(O)cc1)[C@@H](C)O)[C@@H](C)O)[C@@H](C)O)C(=O)O` [CXCR2] (H-YDDRSSSGHTSTTL-OH), the Ki on PSD-95 PDZ3 (read-out: K i PDZ3) was found to be 370 ± 39 µM; at PSD-95 PDZ1 (25 nM Cy5-KIF1Bα, 10 mM HEPES pH 7.4, 150 mM NaCl, 1% BSA, room temperature, mean Ki ± SEM from two or more independent experiments, read-out: K i PDZ1) it was 280 ± 25 µM; on PSD-95 PDZ2, 370 ± 53 µM.
For the compound `CC[C@H](C)[C@H](NC(=O)[C@H](CO)NC(=O)[C@H](CO)NC(=O)[C@H](CC(C)C)NC(=O)[C@H](CCCCN)NC(=O)[C@H](CCC(=O)O)NC(=O)[C@@H](N)Cc1ccc(O)cc1)C(=O)N[C@@H](CCC(=O)O)C(=O)N[C@@H](CO)C(=O)N[C@@H](CC(=O)O)C(=O)N[C@H](C(=O)O)C(C)C` [GluN2B, reference compound] (H-YEKLSSIESDV-OH), the Ki was above 1000 µM at PSD-95 PDZ3 (FP competition, unlabeled reference ligand vs Cy5-CRIPT, Ki ± fitting error, read-out: Ki PDZ3 Result (Table S2)) and 29 ± 2.5 µM at PSD-95 PDZ1 (unlabeled reference ligand vs Cy5-KIF1Bα, mean Ki ± SEM from two or more independent experiments, read-out: Ki PDZ1 Result (Table S2)).
For `CC(C)[C@H](NC(=O)[C@H](CCC(N)=O)NC(=O)[C@H](CCCNC(=N)N)NC(=O)[C@H](CC(=O)O)NC(=O)[C@H](CC(=O)O)NC(=O)[C@@H](N)Cc1ccc(O)cc1)C(=O)N1CCC[C@H]1C(=O)N[C@@H](Cc1ccccc1)C(=O)N[C@H](C(=O)N[C@@H](CCCCN)C(=O)N[C@H](C(=O)N[C@H](C(=O)N[C@H](C(=O)N[C@@H](Cc1ccccc1)C(=O)O)[C@@H](C)O)[C@@H](C)O)[C@@H](C)O)[C@@H](C)O` [SSTR4 Mouse] (H-YDDRQVPFTKTTTF-OH), the Ki is above 1000 µM on PSD-95 PDZ3 (read-out: K i PDZ3), above 1000 µM on PSD-95 PDZ1 (setting [1]) and 420 ± 52 µM on PSD-95 PDZ2.
Take `CC(C)[C@H](NC(=O)[C@H](CCCCN)NC(=O)[C@H](CO)NC(=O)[C@H](CCC(=O)O)NC(=O)[C@H](CO)NC(=O)[C@H](C)NC(=O)[C@H](Cc1ccccc1)NC(=O)CNC(=O)[C@@H]1CCCN1C(=O)[C@H](CCCNC(=N)N)NC(=O)[C@H](CCCNC(=N)N)NC(=O)[C@H](CC(=O)O)NC(=O)[C@H](CC(=O)O)NC(=O)[C@@H](N)Cc1ccc(O)cc1)C(=O)O` [β1AR] (H-YDDRRPGFASESKV-OH): the Ki was determined as 360 ± 82 µM at PSD-95 PDZ3 (read-out: K i PDZ3), 430 ± 47 µM on PSD-95 PDZ1 (setting [1]) and 120 ± 20 µM on PSD-95 PDZ2.
With `CC(C)[C@H](NC(=O)[C@H](CS)NC(=O)[C@H](CO)NC(=O)[C@@H](NC(=O)[C@H](CCCCN)NC(=O)[C@H](CCC(=O)O)NC(=O)[C@H](CC(N)=O)NC(=O)[C@@H](NC(=O)CNC(=O)[C@H](CC(=O)O)NC(=O)[C@H](CCCNC(=N)N)NC(=O)[C@H](CC(=O)O)NC(=O)[C@H](CC(=O)O)NC(=O)[C@@H](N)Cc1ccc(O)cc1)C(C)C)C(C)C)C(=O)O` [5-HTR2A] (H-YDDRDGVNEKVSCV-OH), the Ki is above 1000 µM at PSD-95 PDZ3 (read-out: K i PDZ3), 160 ± 4 µM on PSD-95 PDZ1 (setting [1]) and 46 ± 0.2 µM at PSD-95 PDZ2.
As for `CC[C@H](C)[C@H](NC(=O)[C@@H](NC(=O)[C@H](CC(C)C)NC(=O)[C@H](CC(N)=O)NC(=O)[C@H](CC(N)=O)NC(=O)[C@H](Cc1ccc(O)cc1)NC(=O)[C@H](CO)NC(=O)[C@@H](NC(=O)[C@H](Cc1ccc(O)cc1)NC(=O)[C@H](CCCCN)NC(=O)[C@H](CCCNC(=N)N)NC(=O)[C@H](CC(=O)O)NC(=O)[C@@H](N)CC(=O)O)C(C)C)C(C)C)C(=O)O` [mGlu7(a)] (H-DDRKYVSYNNLVI-OH), the Ki at PSD-95 PDZ3 (read-out: K i PDZ3) was above 1000 µM; on PSD-95 PDZ1 (setting [1]), 610 ± 51 µM; on PSD-95 PDZ1 (setting [2]) it was above 600 µM; on PSD-95 PDZ2 it was above 1000 µM.
Consider `CC(C)C[C@H](NC(=O)[C@@H](NC(=O)[C@H](CO)NC(=O)[C@H](CO)NC(=O)[C@H](CO)NC(=O)[C@H](CCC(N)=O)NC(=O)[C@H](CCCCN)NC(=O)[C@H](Cc1ccc(O)cc1)NC(=O)[C@H](CC(=O)O)NC(=O)[C@H](CCCNC(=N)N)NC(=O)[C@H](CCCNC(=N)N)NC(=O)[C@H](CC(=O)O)NC(=O)[C@@H](N)CC(=O)O)[C@@H](C)O)C(=O)O` [mGlu1(a)] (H-DDRRDYKQSSSTL-OH), for which the Ki was above 1000 µM on PSD-95 PDZ3 (read-out: K i PDZ3), above 600 µM at PSD-95 PDZ1 (setting [2]) and above 1000 µM at PSD-95 PDZ2.
For “EVVDSTTSSL [mGlu2, synthetic peptide, C-terminal 10 aa of human mGlu2 with N-terminal YDDR/DDR linker]”, the “Interaction with PSD-95 using fluorescence polarization” value with PSD-95 is recorded as “not to interact”.
